# Publication PMC6235670, “An mTOR Signaling Modulator Suppressed Heterotopic Ossification of Fibrodysplasia Ossificans Progressiva” (Stem Cell Reports, 2018)
# Tests used:
# BMP type I receptors = system: BMP type I receptors; design: method as in Lewis and Prywes, 2013; details: ref Lewis and Prywes, 2013; cited from earlier work
# FOP-iMSCs = experiment: 2D chondrogenic induction of FOP-iMSCs with activin A (GAG, Alcian blue); type: cell-based, human; details: activin A, 7 days
# ATDC5/FOP-ACVR1 cells = experiment: ALP assay (HTS and dose-response) in ATDC5/FOP-ACVR1; type: cell-based, mouse; details: Mus musculus, 72 h, read-out: IC50 (ALP assay)
# Method: ATDC5/FOP-ACVR1 cells were plated in 96-well white plates (2,000 cells/well/40 μL, Corning) in DMEM/F-12 supplemented with 5% (v/v) FBS. Two hours after incubation at 37°C under 5% CO2, 10 μL of test compounds (final 1 μM) was added, and the assay plates were incubated at 37°C under 5% CO2. After 3 days of incubation, ALP activity was measured using an Amplite Colorimetric Alkaline Phosphatase Assay Kit (AAT Bioquest) according to the manufacturer's protocol.
# Generation of ATDC5 stably expressing ACVR1. WT - or FOP-ACVR1 was inserted into doxycycline (Dox)- […]
# (KW111/WT-ACVR1 or KW111/FOP-ACVR1). KW111/WT-ACVR1 or KW111/FOP-ACVR1 and PBaseII […]
# FuGeneHD® (Promega) according to the manufacturer’s protocol, and the neomycin- resistant population (500 µg/mL) was selected. […]
# HTS campaign and follow-up screens. […] After 3 days incubation, Alkaline Phosphatase activity (ALP) or AlamarBlue activity was measured using Amplite™ Colorimetric Alkaline Phosphatase Assay Kit (AAT Bioquest) or alamarBlue® Cell Viability Reagent (Thermo Fisher Scientific) according to the manufacturer’s protocol, respectively. […]
# was measured on POWERSCAN4 (DS Pharma Biomedical) or EnVision® Multilabel Reader (PerkinElmer).
# Inhibitory effects of the screened compounds are given as percent inhibition, which was calculated using the following equation: (1-([Abs of compound] - [Abs of Min])/([Abs of Max] - [Abs of Min]))× 100, where [Abs of Max] and [Abs of Min] are the mean Abs of DMSO control and 1 µM DMH-1, respectively. The Z’ factor, which is widely used as a measure of the assay quality of each plate, was calculated using the following equation: Z’ factor = 1 - 3 × ([SD of Max] + [SD of Min])/([Abs of Max] - [Abs of Min]) (SI Appendix, Fig.
# The S/B (signal-to-background) ratio was calculated using the following equation: ([Abs of Max]/[Abs of Min]) (SI Appendix, Fig. S3B). […]
# BMP signaling (BRE-Luc) = experiment: BRE-Luc reporter assay in FOP-iMSCs; type: cell-based, human; details: activin A and compounds for 16 hr
# Method: (§1) FOP-iMSCs transiently transfected with BRE-Luc (A) or CAGA-Luc (B) with CMV-Renilla were stimulated with activin A and compounds for 16 hr (A) or 3 hr (B). […] One day after siRNA transfection, chondrogenic induction with activin A was initiated, and after 7 days the cells were harvested. […] FOP-iMSCs cultured with 10% FBS were treated with 100 nM rapamycin (Rapa) or TAK 165 (TAK) for 2 hr, and the cells were harvested. […] 1 μM TAK, 1 μM CP (CP-724714, another selective ERBB2 inhibitor), or 10 nM Rapa were applied in the experiments.
# mTOR signaling (p-S6) = experiment: p-S6 western blotting during chondrogenic induction of FOP-iMSCs with activin A; type: cell-based, human; details: 1 µM
# Method: Western blotting. SDS- PAGE and blotting with whole-cell lysates were performed by standard procedures.
# Protein bands were detected with ECL Prime Western Blotting Detection Reagent (GE Healthcare) and visualized using BIO-RAD Molecular Imager® Chemi-DocTM XRS+ with Image LabTM software (Bio-Rad).
# All data (relative intensity) were corrected by β-actin.
# Antibodies for western blotting and immunostaining.
# N ame Company Cat. No Concentration
# Human Activin RIA/ALK-2 Antibody R&D Systems) AF637 1:100
# Anti-human Vimentin antibody Abcam ab16700 1:40
# Collagen I Antibody Novus NB600- 1:100
# Anti-rabbit IgG, HRP-linked Antibody Cell Signaling #7074 1:10000 […]
# 2nd Goat anti-Rabbit IgG (H+L) Secondary Antibody, Invitrogen A-11008 1:100 antibody Alexa Fluor® 488 conjugate
# Goat anti-Rabbit IgG (H+L) Secondary Antibody, Invitrogen A-21428 1:500
# [1] = system: BMP-7-induced HO model mice (C57BL/6); experiment: BMP-7-induced HO model mice
# Source text: (§2) MTOR s604 […]tt […]at […]
# For X- ray images, mice were anesthetized with isoflurane (5% for induction, 2-3% for maintenance, Abbvie), immobilized and X-rayed using µFX-1000 (Fujifilm) or DX-50 (Faxitron Bioptics). µCT images were scanned using X-ray CT systems (inspeXio SMX-100CT, Shimadzu) and analyzed with TRI/3D-BON software (Ratoc System Engineering) according to the manufacturer's instructions. Four weeks after injection, the injected sites were harvested, fixed with 4% paraformaldehyde for 24 h, embedded in paraffin, and sectioned and stained […]
# BMP-7-induced HO model mice. BMP -7 (2 µ g/mouse) was injected into the right gastrocnemius muscle of C57BL/6NJcl mice (6-8 weeks, male, CLEA Japan), and compounds were administered once a day, five times a week (intraperitoneal administration). Mice were analyzed 2 weeks after injection. […]
# [2] = system: TGF-β signaling (CAGA-Luc); experiment: CAGA-Luc reporter assay in FOP-iMSCs; type: cell-based, human; details: activin A and compounds for 3 hr
# Method: as §1
# [3] = system: NOD/SCID mice transplanted with FOP-iMSCs
# Source text: as §2
# For X- ray images, mice were anesthetized with isoflurane (5% for induction, 2-3% for maintenance, Abbvie), immobilized and X-rayed using µFX-1000 (Fujifilm) or DX-50 (Faxitron Bioptics). µCT images were scanned using X-ray CT systems (inspeXio SMX-100CT, Shimadzu) and analyzed with TRI/3D-BON software (Ratoc System Engineering) according to the manufacturer's instructions. […]
# Activin-A-induced HO model transplanted with FOP-iMSCs. FOP- (right leg) and resFOP-iMSCs (left leg) (4 x 10^6 cells, respectively) were transplanted into the gastrocnemius muscle of NOD/ShiJic-scid Jcl (NOD/SCID) mice (8 weeks, male, CLEA Japan) with C3H -DoxOn-hINHBA (5 x 10^5 cells), which can continuously expose Activin-A to the transplanted iMSCs in vivo ( Hino et al., 2015) . In the Dox-induced group, 1 mg/mL Dox (Sigma-Aldrich) was administered via drinking water with 10 mg/mL sucrose (Nacalai Tesque) for two weeks after transplantation. Compounds were intraperitoneally administered once a day, five times a week. Eight weeks after transplantation, the transplanted cells were harvested , fixed with 4% paraformaldehyde for 24 h, embedded in paraffin, and sectioned and stained with HE, von Kossa, Safranin O, human specific anti-Vimentin antibody and Collagen I antibody as previously described (Hino et al., 2015; Umeda et al., 2012; […]
smiles,measurement,setting,value
"CN1CCN(CCOc2cc(OC3CCOCC3)c3c(Nc4c(Cl)ccc5c4OCO5)ncnc3c2)CC1 [AZD0530, saracatinib]",inhibition of BMP type I receptors,BMP type I receptors,inhibited
same,inhibition of glycosaminoglycan (GAG) production,FOP-iMSCs; 1 μM,potent inhibition
same,"suppression of chondrogenic induction (GAG), dose dependence",FOP-iMSCs,dose-dependent
same,IC50,ATDC5/FOP-ACVR1 cells,4 nM
same,BRE-Luc (BMP-specific luciferase reporter),BMP signaling (BRE-Luc),inhibited
same,p-S6 levels from 2 hr after treatment,mTOR signaling (p-S6),significantly inhibited
same,body weight change compared to vehicle group,"[1]; i.p. for 2 weeks, n=5",No significant differences
same,BMP-7-induced HO (heterotopic bone volume),[1]; i.p. once daily 5 times a week for 2 weeks,suppressed
same,# of HO (> 20 mm3): number of mice harboring HO,"[1]; i.p. once daily 5 times a week for 2 weeks, N = 5",1/5
same,CAGA-Luc (TGF-β-responsive luciferase reporter),[2],inhibited
same,body weight change compared with vehicle group,[3]; 5 mg/kg i.p.,No significant differences
same,hypertrophic chondrocytes and von Kossa- and COL1-positive bone regions,[3]; 5 mg/kg i.p.,fewer
same,HO derived from FOP-iMSCs (heterotopic bone volume),"[3]; 5 mg/kg i.p. once daily, five times a week, 8 weeks after transplantation",significantly suppressed
